The target of one data set is T1, mouse EP1 (Mus musculus, UniProt P35375).
T1 construct: expressed in transfected cells; host or cells: CHO cells, membrane fraction
T1 sequence (P35375 1-405): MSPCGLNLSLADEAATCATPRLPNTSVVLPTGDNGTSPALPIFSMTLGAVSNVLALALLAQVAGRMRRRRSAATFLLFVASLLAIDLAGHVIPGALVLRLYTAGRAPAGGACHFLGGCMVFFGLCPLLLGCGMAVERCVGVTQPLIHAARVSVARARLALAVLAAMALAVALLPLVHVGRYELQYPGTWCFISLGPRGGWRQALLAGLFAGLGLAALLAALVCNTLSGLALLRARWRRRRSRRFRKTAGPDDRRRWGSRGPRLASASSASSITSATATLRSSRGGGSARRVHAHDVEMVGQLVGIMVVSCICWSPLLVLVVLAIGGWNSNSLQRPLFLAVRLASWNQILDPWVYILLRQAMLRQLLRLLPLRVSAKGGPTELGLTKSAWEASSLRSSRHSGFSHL
Briefly: Binding assay using CHO cell membrane expressing prostanoid receptor subtype, [3H]-PGE2 competition. As to conditions: CHO cell membrane fraction, 2.5 nM [3H]-PGE2, 1 hour at room temperature, pH6.0. How it is done: (§1) For example, in a standard laboratory test, such effects of the compound of the present invention were confirmed by binding assay using cell expressing the prostanoid receptor subtypes. (i) Binding assay using cell expressing the prostanoid receptor subtypes The preparation of membrane fraction was carried out according to the method of Sugimoto et al (J. Biol. Chem., 267, 6463-6466 (1992)), using CHO cell expressing prostanoid receptor subtype (mouse EP1, EP2, EP3, and EP4, and human IP).
(§2) The reaction solution (200 μl) containing membrane fraction (0.5 mg/ml), [^3H]-PGE2 was incubated for 1 hour at room temperature. The reaction was terminated by addition of 3 ml of ice-cold buffer. The mixture was rapidly filtered under reduced pressure through a glass filter (GF/B). The radioactivity associated with the filter was measured by liquid scintillation counter.
(§3) Kd and Bmax values were determined from Scatchard plots [Ann. N.Y. Acad. Sci., 51, 660 (1949)]. Non-specific binding was calculated as the amount bound in the presence of an excess (2.5 μM) of unlabeled PGE2. In the experiment for competition of specific [^3H]-PGE2 binding by the compounds of the present invention, [^3H]-PGE2 was added at a concentration of 2.5 nM and the compound of the present invention was added at various concentrations. The following buffer was used in all reactions. Buffer: 10 mM potassium phosphate (pH6.0), 1 mM EDTA, 10 mM MgCl2, 0.1 M NaCl
(§4) The dissociation constant Ki (μM) of each compound was calculated by the following equation.

The target in another data set is T2, mouse EP4 (Mus musculus, UniProt P32240).
T2 construct: expressed in transfected cells; host or cells: CHO cells, membrane fraction
T2 sequence (P32240 whole entry): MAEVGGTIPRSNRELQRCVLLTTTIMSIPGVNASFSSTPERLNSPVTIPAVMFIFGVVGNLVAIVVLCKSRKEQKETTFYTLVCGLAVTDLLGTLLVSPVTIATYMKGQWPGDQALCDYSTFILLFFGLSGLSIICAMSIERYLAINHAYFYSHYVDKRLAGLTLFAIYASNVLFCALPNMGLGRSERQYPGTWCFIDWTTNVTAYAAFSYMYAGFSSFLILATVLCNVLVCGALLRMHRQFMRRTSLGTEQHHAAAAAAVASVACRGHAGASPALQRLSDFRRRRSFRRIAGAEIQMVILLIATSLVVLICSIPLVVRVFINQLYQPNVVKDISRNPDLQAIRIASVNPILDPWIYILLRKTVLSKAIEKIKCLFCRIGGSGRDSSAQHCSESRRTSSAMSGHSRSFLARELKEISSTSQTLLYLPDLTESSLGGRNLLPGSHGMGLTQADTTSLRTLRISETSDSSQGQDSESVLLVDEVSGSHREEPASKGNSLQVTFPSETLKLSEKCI
Described as above. As to conditions: CHO cell membrane fraction, 2.5 nM [3H]-PGE2, 1 hour at room temperature, pH6.0. How it is done: as §1, §2, §3, §4

For the next data set, the target named is T3, EP3α (Mus musculus, UniProt P30557).
T3 construct: expressed in transfected cells; host or cells: CHO cells, membrane fraction
T3 sequence (P30557 1-365): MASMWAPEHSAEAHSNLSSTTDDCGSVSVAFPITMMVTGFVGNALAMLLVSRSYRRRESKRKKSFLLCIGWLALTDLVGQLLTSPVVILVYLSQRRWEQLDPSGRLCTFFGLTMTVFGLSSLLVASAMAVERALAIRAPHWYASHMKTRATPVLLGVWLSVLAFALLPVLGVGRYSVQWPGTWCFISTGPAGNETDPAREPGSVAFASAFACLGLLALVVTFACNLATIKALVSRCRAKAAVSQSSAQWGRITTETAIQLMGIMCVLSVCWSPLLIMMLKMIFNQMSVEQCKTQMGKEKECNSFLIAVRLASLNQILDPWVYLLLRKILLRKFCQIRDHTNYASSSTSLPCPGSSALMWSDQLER
Described as above. As to conditions: CHO cell membrane fraction, 2.5 nM [3H]-PGE2, 1 hour at room temperature, pH6.0. How it is done:
as §1, §2, §3, §4

The subject of the next data set is rat. Briefly: Toxicity: maximum tolerance dose by i.v. route in rat. The class given is in vivo. How it is done:
The toxicity of the compounds of the formula (I) of the present invention is very low and therefore, it is confirmed that these compounds are safe for use as medicine. For example, the maximum tolerance dose of the compound of Example 1 by i.v. route in rat was 30 mg/kg body weight or more.

For `Cc1cc(C[C@H](O)/C=C/[C@H]2[C@H](O)CC(=O)[C@@H]2CCSCCCC(=O)O)ccc1O` [3 (1), (11α,13E,15α)-9-oxo-11,15-Dihydroxy-16-(3-methyl-4-hydroxyphenyl)-17,18,19,20-tetranor-5-thiaprost-13-enoic Acid], the inhibition constant (Ki) on mouse EP1 was greater than 10 µM; at mouse EP4, 2.4 nM; at EP3α, 2900 nM.

As to `COCc1cccc(C[C@H](O)/C=C/[C@@H]2[C@@H](CCSCCCC(=O)O)[C@H](Cl)C[C@H]2O)c1` [3 (2), (9β,11α,13E,15α)-9-Chloro-11,15-dihydroxy-16-(3-methoxymethylphenyl)-17,18,19,20-tetranor-5-thiaprost-13-enoic Acid], the inhibition constant (Ki) at mouse EP1 was greater than 10 µM; at mouse EP4 it was 7.9 nM; at EP3α it was greater than 10000 nM.

Consider `COCc1cccc(C[C@H](O)/C=C/[C@@H]2[C@@H](CCSCCCC(=O)O)[C@H](F)C[C@H]2O)c1` [3 (3), (9β,11α,13E,15α)-9-Fluoro-11,15-dihydroxy-16-(3-methoxymethylphenyl)-17,18,19,20-tetranor-5-thiaprost-13-enoic Acid], for which the Ki at mouse EP1 was greater than 10 µM; on mouse EP4, 18 nM; at EP3α, 1500 nM.

Take `CCCOCc1cccc(C[C@H](O)/C=C/[C@H]2[C@H](O)CC(=O)[C@@H]2CCSCCCC(=O)O)c1` [3 (5), (11α,13E,15α)-9-oxo-11,15-Dihydroxy-16-(3-n-propyloxymethylphenyl)-17,18,19,20-tetranor-5-thiaprost-13-enoic Acid]: the Ki at mouse EP1 is greater than 10 µM; on mouse EP4 it was 15 nM; on EP3α, 570 nM.

In the data set with rat, `COCc1cccc(C[C@H](O)/C=C/[C@H]2[C@H](O)CC(=O)[C@@H]2CCSCCCC(=O)OC)c1` [Example 1, (11α,13E,15α)-9-oxo-11,15-Dihydroxy-16-(3-methoxymethylphenyl)-17,18,19,20-tetranor-5-thiaprost-13-enoic Acid·Methyl Ester] yielded a maximum tolerance dose of no less than 30 mg/kg body weight.

Turning to `COCc1cccc(C[C@H](O)/C=C/[C@H]2[C@H](O)CC(=O)[C@@H]2CCSCCCC(=O)O)c1` [Example 3, (11α,13E,15α)-9-oxo-11,15-Dihydroxy-16-(3-methoxymethylphenyl)-17,18,19,20-tetranor-5-thiaprost-13-enoic Acid], the Ki was greater than 10 µM on mouse EP1, 3.8 nM at mouse EP4 and 840 nM on EP3α.

Regarding `COCc1cccc(C[C@H](O)CC[C@H]2[C@H](O)CC(=O)[C@@H]2CCSCCCC(=O)O)c1` [Example 6, (11α,15α)-9-oxo-11,15-Dihydroxy-16-(3-methoxymethylphenyl)-17,18,19,20-tetranor-5-thiaprostanoic Acid], the figures for the Ki at mouse EP1, at mouse EP4 and at EP3α were greater than 10 µM, 6.2 nM and 460 nM, respectively.

Take “(11α,13E,15α)-9-oxo-11,15-Dihydroxy-16-(3-ethoxymethylphenyl)-17,18,19,20-tetranor-5-thiaprost-13-enoic Acid [3 (4)]”: the Ki was greater than 10 µM at mouse EP1, 10 nM on mouse EP4 and 500 nM on EP3α.
